Data from ChEMBL document CHEMBL1146175, “Natural inhibitors targeting osteoclast-mediated bone resorption” (Bioorg Med Chem Lett, 2006).

Each molecule was assayed against Integrin alpha-V/beta-3 (Homo sapiens, UniProt P05106+P06756) (assay: Inhibition of human alpha-v-beta-3 integrin receptor by ELISA).
Format: protein-complex assay

Integrin alpha-V/beta-3, sequence (P05106 27-788 limits assumed): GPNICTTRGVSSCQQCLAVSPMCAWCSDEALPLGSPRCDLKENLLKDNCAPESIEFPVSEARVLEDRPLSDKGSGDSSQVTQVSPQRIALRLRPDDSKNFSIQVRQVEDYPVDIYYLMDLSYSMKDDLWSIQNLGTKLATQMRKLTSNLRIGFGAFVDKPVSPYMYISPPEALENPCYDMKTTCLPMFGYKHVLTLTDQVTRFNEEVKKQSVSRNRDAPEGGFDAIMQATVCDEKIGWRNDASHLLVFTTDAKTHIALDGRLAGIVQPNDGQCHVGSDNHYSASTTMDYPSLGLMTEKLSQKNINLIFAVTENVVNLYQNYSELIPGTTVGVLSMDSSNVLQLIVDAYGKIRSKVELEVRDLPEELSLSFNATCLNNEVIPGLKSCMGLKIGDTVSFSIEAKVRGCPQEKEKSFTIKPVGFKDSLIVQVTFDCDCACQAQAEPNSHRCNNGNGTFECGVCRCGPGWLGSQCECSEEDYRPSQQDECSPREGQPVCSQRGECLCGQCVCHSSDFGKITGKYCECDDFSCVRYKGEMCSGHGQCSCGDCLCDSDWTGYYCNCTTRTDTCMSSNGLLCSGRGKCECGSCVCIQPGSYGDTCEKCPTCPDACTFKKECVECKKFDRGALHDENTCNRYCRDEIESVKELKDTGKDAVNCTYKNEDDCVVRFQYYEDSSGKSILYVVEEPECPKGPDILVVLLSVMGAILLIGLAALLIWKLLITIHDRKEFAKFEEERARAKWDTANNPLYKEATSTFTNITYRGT
Integrin alpha-V/beta-3, sequence (P06756 31-889 limits assumed): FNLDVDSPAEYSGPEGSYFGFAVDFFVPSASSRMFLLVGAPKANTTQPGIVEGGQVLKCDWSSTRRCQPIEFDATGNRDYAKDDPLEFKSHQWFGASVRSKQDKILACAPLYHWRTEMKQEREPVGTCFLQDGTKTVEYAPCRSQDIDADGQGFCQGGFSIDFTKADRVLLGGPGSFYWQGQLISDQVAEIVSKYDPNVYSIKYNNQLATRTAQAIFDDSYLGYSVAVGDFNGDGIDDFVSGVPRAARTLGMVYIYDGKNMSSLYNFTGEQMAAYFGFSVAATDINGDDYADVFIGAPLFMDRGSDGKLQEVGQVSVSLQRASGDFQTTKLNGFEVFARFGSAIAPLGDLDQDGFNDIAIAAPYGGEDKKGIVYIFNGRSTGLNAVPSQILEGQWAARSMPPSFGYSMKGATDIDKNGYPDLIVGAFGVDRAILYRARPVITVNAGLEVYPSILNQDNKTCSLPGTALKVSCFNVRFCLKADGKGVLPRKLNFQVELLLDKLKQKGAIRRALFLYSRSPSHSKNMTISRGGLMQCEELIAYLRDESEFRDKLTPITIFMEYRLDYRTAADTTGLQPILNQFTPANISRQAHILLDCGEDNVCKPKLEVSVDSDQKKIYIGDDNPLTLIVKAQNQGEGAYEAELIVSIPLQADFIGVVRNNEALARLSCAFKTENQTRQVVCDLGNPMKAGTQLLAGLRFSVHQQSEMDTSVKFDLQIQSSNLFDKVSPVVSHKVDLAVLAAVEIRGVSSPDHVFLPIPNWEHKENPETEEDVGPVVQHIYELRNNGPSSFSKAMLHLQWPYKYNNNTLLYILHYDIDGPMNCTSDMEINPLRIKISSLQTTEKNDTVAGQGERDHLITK
Integrin alpha-V/beta-3, sequence (P06756 891-1048 limits assumed): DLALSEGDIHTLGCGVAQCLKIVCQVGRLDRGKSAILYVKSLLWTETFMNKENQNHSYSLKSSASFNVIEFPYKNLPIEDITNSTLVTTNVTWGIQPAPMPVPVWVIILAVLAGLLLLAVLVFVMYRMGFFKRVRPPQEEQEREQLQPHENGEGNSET

| IC50 [nM] | Structure (SMILES) |
| --- | --- |
| 18300 | O=C(O)/C=C/c1ccccc1O[C@@H]1O[C@H](CO)[C@@H](O)[C@H](O)[C@H]1O [MELILOTOSIDE] |

The molecules below were run against T1, Cathepsin K (Homo sapiens, UniProt P43235) (assay: Inhibition of human Cathepsin K).
T1 sequence (P43235 whole entry): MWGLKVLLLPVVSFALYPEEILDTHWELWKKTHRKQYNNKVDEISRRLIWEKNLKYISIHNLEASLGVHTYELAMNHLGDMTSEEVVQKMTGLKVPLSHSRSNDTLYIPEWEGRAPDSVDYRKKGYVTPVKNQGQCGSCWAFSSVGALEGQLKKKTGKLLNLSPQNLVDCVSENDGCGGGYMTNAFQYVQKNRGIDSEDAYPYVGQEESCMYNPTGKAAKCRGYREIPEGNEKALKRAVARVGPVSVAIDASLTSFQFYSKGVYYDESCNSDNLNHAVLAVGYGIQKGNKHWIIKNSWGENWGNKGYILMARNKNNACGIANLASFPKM

| Structure (SMILES) | IC50 [nM] |
| --- | --- |
| O=C1C[C@@H](c2ccc(O)c(-c3c(O)cc(O)c4c(=O)cc(-c5ccc(O)cc5)oc34)c2)Oc2cc(O)cc(O)c21 | 1420 |
| COc1cc2c([nH]c3c4c(c(C)cc32)OC(C)(C)C=C4)c(-c2c(O)c(OC)cc3c2[nH]c2c4c(c(C)cc23)OC(C)(C)C=C4)c1O | 1910 |
| COc1ccc(-c2cc(=O)c3c(O)cc(OC)c(-c4cc(-c5cc(=O)c6c(O)cc(O)cc6o5)ccc4O)c3o2)cc1 [7'',4'''-dimethylamentoflavone] | 1570 |
| O=c1cc(-c2ccc(O)c(-c3c(O)cc(O)c4c(=O)cc(-c5ccc(O)cc5)oc34)c2)oc2cc(O)cc(O)c12 [AMENTOFLAVONE] | 1880 |
| COc1ccc(-c2cc(=O)c3c(O)cc(O)cc3o2)cc1-c1c(O)cc(O)c2c(=O)cc(-c3ccc(O)cc3)oc12 [BILOBETIN] | 1520 |

Other lines, results leading:

| IC50 [nM] | Structure (SMILES) |
| --- | --- |
| 1540 | O=c1cc(-c2ccc(Oc3c(O)cc4oc(-c5ccc(O)cc5)cc(=O)c4c3O)cc2)oc2cc(O)cc(O)c12 [HINOKIFLAVONE] |
| 42.2 | CC(=O)N[C@@H](CC(C)C)C(=O)N[C@@H](CC(C)C)C(=O)N[C@H](C=O)CCCNC(=N)N [LEUPEPTIN] |
| 2520 | COc1ccc(-c2cc(=O)c3c(O)cc(O)c(-c4cc(-c5cc(=O)c6c(O)cc(O)cc6o5)ccc4O)c3o2)cc1 [PODOCARPUSFLAVONE A] |

The molecules below were run against Matrix metalloproteinase-9 (Homo sapiens, UniProt P14780) (assay: Inhibition of human MMP9 by quenched fluorescense assay).
Matrix metalloproteinase-9, sequence (P14780 whole entry): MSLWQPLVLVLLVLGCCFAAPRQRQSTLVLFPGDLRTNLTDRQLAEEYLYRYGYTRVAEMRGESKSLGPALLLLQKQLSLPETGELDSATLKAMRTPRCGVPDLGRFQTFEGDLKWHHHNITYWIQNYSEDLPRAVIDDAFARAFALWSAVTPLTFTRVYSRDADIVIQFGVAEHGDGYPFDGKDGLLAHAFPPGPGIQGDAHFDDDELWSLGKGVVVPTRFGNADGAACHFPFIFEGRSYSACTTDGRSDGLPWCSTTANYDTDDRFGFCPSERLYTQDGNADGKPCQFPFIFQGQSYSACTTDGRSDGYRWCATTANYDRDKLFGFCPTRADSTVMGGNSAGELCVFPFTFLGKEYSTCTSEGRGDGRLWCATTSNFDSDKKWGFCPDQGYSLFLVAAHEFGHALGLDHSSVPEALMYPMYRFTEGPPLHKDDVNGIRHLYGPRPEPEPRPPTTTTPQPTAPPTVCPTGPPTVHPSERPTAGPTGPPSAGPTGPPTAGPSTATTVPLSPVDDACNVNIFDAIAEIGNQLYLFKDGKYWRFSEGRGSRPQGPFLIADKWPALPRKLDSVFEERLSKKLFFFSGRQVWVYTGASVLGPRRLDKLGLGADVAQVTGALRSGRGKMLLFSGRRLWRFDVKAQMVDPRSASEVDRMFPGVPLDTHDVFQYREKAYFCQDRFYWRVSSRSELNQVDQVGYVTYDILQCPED

| Structure (SMILES) | IC50 [nM] |
| --- | --- |
| O=C(NO)[C@@H](Cc1ccccc1)NS(=O)(=O)c1ccc(-c2ccccc2)cc1 | 7.06 |
| C[C@@H]1C[C@@H](O)[C@@]2(O)[C@@]13C[C@@H](OC(=O)[C@@H]3O)[C@](C)(O)[C@@]21COC1=O [ANIASATIN] | 17700 |
| O=c1c2ccccc2nc2n1CCc1c-2[nH]c2ccccc12 [RUTAECARPINE] | 27700 |
